Data taken from US20100247461A1, “ANTI-INFLAMMATORY COMPLEXES” (Signum Biosciences, Inc., priority 2009, published 2010).

Experiments:
[1] = tested on: MPO activity (neutrophil infiltration) in P. acnes-injected ear; assay: P. acnes-induced mouse ear model of inflammation - MPO endpoint; format: in vivo; conditions: dose of 0.4 mg/20 μL
Protocol: The methods for a model of P. acnes-inflammation are described elsewhere (Nakatsuji et al., J Invest Dermatol, 2008, 128: 2451-2457).
The protocol for inducing inflammation using P. acnes bacterial challenge on the mouse ear was slightly modified from the method described previously (Natatsuji et al., 2008). Briefly, Swiss Webster (ICR, 6-8 weeks old) mouse ears were injected with living P. acnes culture intradermally. An amount of 20 μl aliquots of living P. acnes (ATCC 6919, 3×10^6 CFU) suspended in PBS was intradermally injected in the central portion of the ear. As a control, 20 μl of PBS was injected into control animals.
To assay for inhibition of dermal neutrophil infiltration by AFC complexes, a standard method was used (see Bradley et al., J Invest Dermatol, 1982,78: 206-209; Young et al., J Invest Dermatol, 1983, 80: 48-52; De Young et al, Agents Actions, 1989, 26: 335-41; and Rao et al., Inflammation, 1993, 17: 723-41). Briefly, 6mm biopsy punches taken from both compound-treated ears as well as non-treated control ears were homogenized in 400 μl of 0.5% hexadecyltrimethylammonium bromide in 50 mM potassium phosphate buffer (pH 6.0) using the Fast Prep 24 (MP Biomedicals, Solon, Ohio). Supernatants were assayed for MPO activity using a model EL 340 96-well plate reader (BioTek Instruments, Winooski, Vt.). The percent inhibition of neutrophil infiltration by each AFC complex was determined by comparing the average MPO levels in the presence and absence of these compounds. The percent inhibition of MPO was determined by taking the average MPO activity of compound-treated ears and dividing it by the average MPO activity of 12 ears that only received the P. acnes challenge and subtracting that value from 100%. These values were corrected for the MPO activity of normal, non P. acnes-treated mouse ears of littermate controls. Summary of MPO activity ranges determined from an MPO activity assay for dexamethasone (administered at a dose of 1.6 mg/20 μL), clobetasol (administered at a dose of 0.1 mg/20 μL), salicylic acid (administered at a dose of 0.4 mg/20 μL), AFC (administered at a dose of 0.4 mg/20 μL), AFC-Strontium complex (administered at a dose of 0.4 mg/20 μL) and SFC-disodium are presented in Table 4. “+” indicates a range of 0-20%, “++” indicates a range of 20-40%, and “+++” indicates >40% inhibition.

[2] = tested on: mouse skin reepithelialization; assay: Mouse wound healing model - skin reepithelialization; format: in vivo
From the text: The healing of wounded skin is mediated by epidermal reepithelialization that requires keratinocyte migration. Glucocorticoids are known to inhibit wound healing (Ehrlich et al., Proc Soc Exp Biol Med, 1971, 137: 936-938; Leibovich et al., Am J Pathol, 1975, 78, 71-100). […] The methods for studying mouse skin reepithelialization using both partial and full thickness mouse wound healing models have been described elsewhere (Kim et al. Wound Repair Regen, 2001, 9: 386-390). In brief, for partial thickness wounds, a 3 mm-diameter circle of epidermis is removed from the ventral auricle. The resulting wound is cleansed and dressed with an occlusive polyurethane film. The mouse ears are excised on days 3, 5, 8, and 11 post-operation and fixed in 10% buffered formalin. Following day 8 post-operation, sampling of treated mice is performed to determine completion of healing. For full thickness wounds, mice heads are shaved and depilated prior to excising the skin. The cleaned and dressed wounds are harvested and fixed at days 3, 5, 8 and 10 and fixed in 10% buffered formalin.

CC(=O)N[C@@H](CSC/C=C(\C)CC/C=C(\C)CCC=C(C)C)C(=O)O [AFC, N-acetyl-S-farnesyl-L-cysteine, reference compound]
MPO % Inhibition [1]: +++ (“+++” indicates >40% inhibition)
effect on mouse skin reepithelialization of wounds [2]: no effects
